Results reported in patent US12551451B2, “Compositions and methods for delivering molecules” (SunVax mRNA Therapeutics Inc., priority 2023, dated 2026).

Test: LNP Characteristics (size, PDI, encapsulation efficiency) of LNPs formulated with novel ionizable lipids
Type: physicochemical
Settings: LNP formulated with the ionizable lipid, DOPE, Cholesterol, DMG-PEG2000
Method: LNPs formulated using the novel ionizable lipids of the disclosure or control ionizable lipids MC3 and SM-102 were synthesized by mixing the lipid components of the LNP in ethanol at a predetermined molar ratio (ionizable lipid/DOPE/Cholesterol/DMG-PEG2000=30/15/50/1.5) to prepare an organic phase. Sa-mRNA encoding firefly luciferase (LUC) or green fluorescent protein (GFP) was diluted in 50 mM citrate buffer (pH 4.5, Fisher) to prepare an aqueous phase. The sa-mRNA was stored at −80° C. and was thawed on ice prior to use. The ethanol and aqueous phases were mixed at a 1:3 ratio by pipette with the N/P=4.2/1. The resultant LNPs were purified by ultrafiltration (100,000 cut-off, MilliporeSigma™ Amicon™ Ultra-15 Centrifugal Filter Units) at 4° C. prior to transfection into a cell, such as a T-cell.
LNPs formulated using novel ionizable lipids of the disclosure were synthesized using the procedure described in Example 2 and characterized. Table 4 below show the properties of each LNP formulated using a novel ionizable lipid of the disclosure.

Avg. Encapsulation Efficiency (EE) % [%] | Avg. PDI | Avg. Size [nm] | SMILES
95.1 | 0.1 | 200 | CCCCCCCCCN(CCCCCCCCC)CCC(=O)N1CN(C(=O)CCN(CCCCCCCCC)CCCCCCCCC)CN(C(=O)CCN(CCCCCCCCC)CCCCCCCCC)C1 [Lipid E2, 1,1′,1″-(1,3,5-triazinane-1,3,5-triyl)tris(3-(dinonylamino)propan-1-one)]
90.4 | 0.12 | 190.7 | CCCCCCCCCCCCCCCC(=O)N(C(CCCCCCCC)CCCCCCCC)C(C(=O)NC1=CCCCC1)C1CCN(CC)CC1 (stereo not drawn) [Lipid P6A2, N-(2-(cyclohex-1-en-1-ylamino)-1-(1-ethylpiperidin-4-yl)-2-oxoethyl)-N-(heptadecan-9-yl)palmitamide]
95.5 | 0.10 | 188.0 | CCCCCCCCCCCCCC(=O)N(CC(CCCCCCCC)CCCCCCCCCC)C(C(=O)NC1CCCCC1)C1CCN(CC)CC1 (stereo not drawn) [Lipid P28D10]
97.8 | 0.11 | 176.6 | CCCCCCCCCCCCCCCC(=O)N(C(CCCCCCC)CCCCCCC)C(C(=O)NC1CCCCC1)C1CCN(CC)CC1 (stereo not drawn) [Lipid P30A1, N-(2-(cyclohexylamino)-1-(1-ethylpiperidin-4-yl)-2-oxoethyl)-N-(pentadecan-8-yl)palmitamide]
91.0 | 0.10 | 151.6 | CCCCCCCCCCCCCCCCC(=O)N(C(CCCCCCC)CCCCCCC)C(CC1CCN(C)CC1)C(=O)NC1CCCCC1 (stereo not drawn) [Lipid P30B7, N-(1-(cyclohexylamino)-3-(1-methylpiperidin-4-yl)-1-oxopropan-2-yl)-N-(pentadecan-8-yl)heptadecanamide]
93.9 | 0.11 | 166.8 | CCCCCCCCCCCCCCCCCC(=O)N(C(CCCCCCC)CCCCCCC)C(CC1CCN(C)CC1)C(=O)NC1CCCCC1 (stereo not drawn) [Lipid P30C7, N-(1-(cyclohexylamino)-3-(1-methylpiperidin-4-yl)-1-oxopropan-2-yl)-N-(pentadecan-8-yl)stearamide]
97.4 | 0.12 | 179.1 | CCCCCCCCCCCCCC(=O)N(C(CCCCCCC)CCCCCCC)C(C(=O)NC1CCCCCC1)C1CCN(CC)CC1 (stereo not drawn) [Lipid P38D1, N-(2-(cycloheptylamino)-1-(1-ethylpiperidin-4-yl)-2-oxoethyl)-N-(pentadecan-8-yl)tetradecanamide]
94.8 | 0.21 | 236.3 | CCCCCCCCCCCCCC(=O)N(C(CCCCCCC)CCCCCCC)C(CC1CCN(C)CC1)C(=O)NC1CCCCCC1 (stereo not drawn) [Lipid P38D7, N-(1-(cycloheptylamino)-3-(1-methylpiperidin-4-yl)-1-oxopropan-2-yl)-N-(pentadecan-8-yl)tetradecanamide]
95.4 | 0.18 | 186.9 | CCCCCCCCCCCCCC(=O)N(C(CCCCCCCC)CCCCCCCC)C(CC1CCN(C)CC1)C(=O)NC1CCCCCC1 (stereo not drawn) [Lipid P38D8, N-(1-(cycloheptylamino)-3-(1-methylpiperidin-4-yl)-1-oxopropan-2-yl)-N-(heptadecan-9-yl)tetradecanamide]
95.8 | 0.14 | 189.9 | CCCCCCCCCCC(=O)N(CC(CCCCCCCC)CCCCCCCCCC)C(CC1CCN(C)CC1)C(=O)NC1CCCCCC1 (stereo not drawn) [Lipid P40B10, N-(1-(cycloheptylamino)-3-(1-methylpiperidin-4-yl)-1-oxopropan-2-yl)-N-(2-octyldodecyl)undecanamide]
99.1 | 0.25 | 192.9 | CCCCCCCCCCCC(=O)N(CC(CCCCCCCC)CCCCCCCCCC)C(CC1CCN(C)CC1)C(=O)NC1CCCCCC1 (stereo not drawn) [Lipid P40C10, N-(1-(cycloheptylamino)-3-(1-methylpiperidin-4-yl)-1-oxopropan-2-yl)-N-(2-octyldodecyl)dodecanamide]
96.6 | 0.14 | 189.3 | CCCCCCCCCCCC(=O)N(C(CCCCCCCCCCC)CCCCCCCCCCC)C(CC1CCN(C)CC1)C(=O)NC1CCCCCC1 (stereo not drawn) [Lipid P40C11, N-(1-(cycloheptylamino)-3-(1-methylpiperidin-4-yl)-1-oxopropan-2-yl)-N-(tricosan-12-yl)dodecanamide]
98.2 | 0.18 | 149.2 | CCCCCCCCCCCCCCC(=O)N(C(CCCCCCC)CCCCCCC)C(CC1CCN(C)CC1)C(=O)NC1CCCCCC1 (stereo not drawn) [Lipid P40D7, N-(1-(cycloheptylamino)-3-(1-methylpiperidin-4-yl)-1-oxopropan-2-yl)-N-(pentadecan-8-yl)pentadecanamide]
98.1 | 0.26 | 186.5 | CCCCCCCCCCCCC(=O)N(CC(CCCCCCCCCC)CCCCCCCCCCCC)C(CC1CCN(C)CC1)C(=O)NC(C)(C)C (stereo not drawn) [Lipid P51C12, N-(1-(tert-butylamino)-3-(1-methylpiperidin-4-yl)-1-oxopropan-2-yl)-N-(2-decyltetradecyl)tridecanamide]
97.9 | 0.10 | 173.8 | CCCCCCCCCCCC(CCCCCCCCCCC)N(C(=O)CCCCCCCCC)C(C(=O)NC(C)(C)C)C1CCN(CC)CC1 (stereo not drawn) [Lipid P53A5, N-(2-(tert-butylamino)-1-(1-ethylpiperidin-4-yl)-2-oxoethyl)-N-(tricosan-12-yl)decanamide]
98.3 | 0.16 | 175.6 | CCCCCCCCCCCCC(CCCCCCCCCC)CN(C(=O)CCCCCCCCC)C(C(=O)NC(C)(C)C)C1CCN(CC)CC1 (stereo not drawn) [Lipid P53A6, N-(2-(tert-butylamino)-1-(1-ethylpiperidin-4-yl)-2-oxoethyl)-N-(2-decyltetradecyl)decanamide]
93.4 | 0.10 | 181.2 | CCCCCCCCCCCCC(CCCCCCCCCC)CN(C(=O)CCCCCCCCCC)C(C(=O)NC12CC3CC(CC(C3)C1)C2)C1CCN(CC)CC1 (stereo not drawn) [Lipid P54B6, N-(2-(((1s,3s)-adamantan-1-yl)amino)-1-(1-ethylpiperidin-4-yl)-2-oxoethyl)-N-(2-decyltetradecyl)undecanamide]
89.1 | 0.12 | 186.3 | CCCCCCCCCCCCCCCC(=O)N(C(CCCCCCC)CCCCCCC)C(C(=O)NC12CC3CC(CC(C3)C1)C2)C1CCN(CC)CC1 (stereo not drawn) [Lipid P56A1, N-(2-(((1s,3s)-adamantan-1-yl)amino)-1-(1-ethylpiperidin-4-yl)-2-oxoethyl)-N-(pentadecan-8-yl)palmitamide]
81.5 | 0.15 | 154.4 | CCCCCCCCCCCCCCCC(=O)N(C(CCCCCCCC)CCCCCCCC)C(C(=O)NC12CC3CC(CC(C3)C1)C2)C1CCN(CC)CC1 (stereo not drawn) [Lipid P56A2, N-(2-(((1s,3s)-adamantan-1-yl)amino)-1-(1-ethylpiperidin-4-yl)-2-oxoethyl)-N-(heptadecan-9-yl)palmitamide]
